Experimental data reported in patent US20070275982A1, “METHOD” (ASTRAZENECA AB, priority 2006, published 2007).
Where two headings read alike, the source gives them in different places.

Tested on: M. tuberculosis
Test: MIC of drugs alone and in combination (synergy test)
Assay type: cell-based, Mycobacterium tuberculosis
Conditions: for change of MIC when tested together: combination Ethambutol + Isoniazid (negative control, FIG. 2); for MIC: Mycobacterium tuberculosis, drug tested alone, read-out: individual MIC
Experimental: A sulfonylurea ALS inhibitor and a triazolopyrimidine ALS inhibitor were tested alone and in combination with Rifampicin. The positive controls used were Isoniazid and Streptomycin where one finds a synergistic action. The individual MICs of Isoniazid (INH) and Streptomycin (Strep) are 0.03 and 1.0 μg/ml respectively. When used in combination, these values drop to 0.0075 and 0.12 μg/ml respectively (cf. FIG. 1). This is 4 fold and 8 fold less.
The negative control used was a combination of Ethambutol (Etham) and Isoniazid (Inh) where there is no synergistic activity. […] In. Clinical Microbiology Procedures Handbook; Vol. 1-2 by Isenberg, Henry. D. Ed Washington D.C.; American Society for Microbiology/1992; Pages 5.18.1 to 5.18.28).

[1] = combination Isoniazid + Streptomycin
[2] = combination Isoniazid + Streptomycin (positive control, FIG. 1)

| SMILES | change of MIC when tested together | MIC [µg/mL] | fold drop of MIC in combination vs individual MIC [1] [fold] | MIC when used in combination [2] [µg/mL] | MIC (Rifampicin/TP experiment (FIG. 4)) [µg/mL] | fold drop of MIC in combination vs individual MIC (combination Rifampicin + SU) [fold] | fold drop of MIC in combination vs individual MIC (combination Rifampicin + TP) [fold] | MIC when used in combination (combination Rifampicin + sulphonylurea compound (SU), FIG. 3) [µg/mL] | MIC when used in combination (combination Rifampicin + triazolopyrimidine compound (TP), FIG. 4) [µg/mL] |
| --- | --- | --- | --- | --- | --- | --- | --- | --- | --- |
| CC[C@@H](CO)NCCN[C@@H](CC)CO [Ethambutol] | do not drop significantly |  |  |  |  |  |  |  |  |
| NNC(=O)c1ccncc1 [Isoniazid] | do not drop significantly | 0.03 | 4 | 0.0075 |  |  |  |  |  |
| CO[C@H]1/C=C/O[C@@]2(C)Oc3c(C)c(O)c4c(O)c(c(/C=N/N5CCN(C)CC5)c(O)c4c3C2=O)NC(=O)/C(C)=C\C=C\[C@H](C)[C@H](O)[C@@H](C)[C@@H](O)[C@@H](C)[C@H](OC(C)=O)[C@@H]1C [Rifampicin] |  | 0.03 |  |  | 0.015 | 8 | 4 | 0.0038 | 0.0038 |
| [H]/N=C(/N)N[C@H]1[C@H](O)[C@@H](O)[C@H](O[C@@H]2O[C@@H](C)[C@](O)(C=O)[C@H]2O[C@@H]2O[C@@H](CO)[C@H](O)[C@@H](O)[C@@H]2NC)[C@@H](N/C(N)=N\[H])[C@@H]1O [Streptomycin] |  | 1 | 8 | 0.12 |  |  |  |  |  |
